Test results reported in patent publication US8952024B2, “Herbicidal pyrimidone derivatives” (E I du Pont de Nemours and Company, priority 2009, dated 2015).

Assays:
Format in all cases: in vivo
[1] = system: umbrella sedge (Cyperus difformis); assay: Test B flooded paddy test; conditions: for Plant response rating, Flood, Sedge, Umbrella: 250 g ai/ha, flooded paddy test, visual rating on 0 to 100 scale (0 no effect, 100 complete control) after 13 to 15 days; for Plant response rating, Sedge, Umbrella: Flood (flooded paddy test), 13 to 15 days; for Sedge, Umbrella plant response rating: Flood, 31 g ai/ha, scale 0 to 100 (0 no effect, 100 complete control)
Source text: (§1) Plant species in the flooded paddy test consisted of rice (Oryza sativa), umbrella sedge (Cyperus difformis), ducksalad (Heteranthera limosa) and barnyardgrass (Echinochloa crus-galli) grown to the 2-leaf stage for testing. At the time of treatment, test pots were flooded with water to 3 cm above the soil surface, treated by application of test compounds directly to the paddy water, and then maintained at that water depth for the duration of the test.
(§2) Treated plants and controls were maintained in a greenhouse for 13 to 15 days, after which time all treated plants were visually evaluated and compared to controls. Plant response ratings, summarized in Table B, are based on a scale of 0 to 100 where 0 is no effect and 100 is complete control. A dash (-) response means no test result.

[2] = system: barnyardgrass (Echinochloa crus-galli); assay: Test B flooded paddy test; conditions: for Plant response rating, Flood, Barnyardgrass: 250 g ai/ha, flooded paddy test, visual rating on 0 to 100 scale (0 no effect, 100 complete control) after 13 to 15 days; for Plant response rating, Barnyardgrass: Flood (flooded paddy test), 13 to 15 days; for Barnyardgrass plant response rating: Flood, 31 g ai/ha, scale 0 to 100 (0 no effect, 100 complete control)
Source text: as §1, §2

rice (Oryza sativa) = assay: Test B flooded paddy test; conditions: for Plant response rating, Flood, Rice: 250 g ai/ha, flooded paddy test, visual rating on 0 to 100 scale (0 no effect, 100 complete control) after 13 to 15 days; for Plant response rating, Rice: Flood (flooded paddy test), 13 to 15 days; for Rice plant response rating: Flood, 31 g ai/ha, scale 0 to 100 (0 no effect, 100 complete control)
Source text: as §1, §2

[3] = system: ducksalad (Heteranthera limosa); assay: Test B flooded paddy test; conditions: for Plant response rating, Flood, Ducksalad: 250 g ai/ha, flooded paddy test, visual rating on 0 to 100 scale (0 no effect, 100 complete control) after 13 to 15 days; for Plant response rating, Ducksalad: Flood (flooded paddy test), 13 to 15 days; for Ducksalad plant response rating: Flood, 31 g ai/ha, scale 0 to 100 (0 no effect, 100 complete control)
Source text: as §1, §2

[4] = system: pigweed (Amaranthus retroflexus); assay: Test A pre-/postemergence plant response
Source text: (§3) Seeds of barnyardgrass (Echinochloa crus-galli), large crabgrass (Digitaria sanguinalis), giant foxtail (Setaria faberii), morningglory (Ipomoea spp.), pigweed (Amaranthus retroflexus), velvetleaf (Abutilon theophrasti), wheat (Triticum aestivum) and corn (Zea mays) were planted into a blend of loam soil and sand and treated preemergence with a directed soil spray using test chemicals formulated in a non-phytotoxic solvent mixture which included a surfactant. At the same time these species were also treated with postemergence applications of test compounds formulated in the same manner.
(§4) Plants ranged in height from two to ten cm and were in the one- to two-leaf stage for the postemergence treatment. Treated plants and untreated controls were maintained in a greenhouse for approximately ten days, after which time all treated plants were compared to untreated controls and visually evaluated for injury. Plant response ratings, summarized in Table A, are based on a 0 to 100 scale where 0 is no effect and 100 is complete control. A dash (-) response means no test result.

[5] = system: barnyardgrass (Echinochloa crus-galli); assay: Test A pre-/postemergence plant response
Source text: as §3, §4

[6] = system: giant foxtail (Setaria faberii); assay: Test A pre-/postemergence plant response
Source text: as §3, §4

[7] = system: large crabgrass (Digitaria sanguinalis); assay: Test A pre-/postemergence plant response
Source text: as §3, §4

[8] = system: morningglory (Ipomoea spp.); assay: Test A pre-/postemergence plant response
Source text: as §3, §4

[9] = system: wheat (Triticum aestivum); assay: Test A pre-/postemergence plant response
Source text: as §3, §4

corn (Zea mays) = assay: Test A pre-/postemergence plant response
Source text: as §3, §4

[10] = system: velvetleaf (Abutilon theophrasti); assay: Test A pre-/postemergence plant response
Source text: as §3, §4

[11] = 62 g ai/ha, scale of 0 to 100 where 0 is no effect and 100 is complete control
[12] = 125 g ai/ha, scale 0 to 100, 0 is no effect, 100 is complete control
[13] = Postemergence, 125 g ai/ha, visual injury, 0 to 100 scale (0 no effect, 100 complete control), approx. ten days
[14] = Postemergence, 500 g ai/ha, visual injury, 0 to 100 scale (0 no effect, 100 complete control), approx. ten days
[15] = Preemergence, 125 g ai/ha, 0 to 100 scale where 0 is no effect and 100 is complete control, approximately ten days
[16] = Preemergence, 500 g ai/ha, 0 to 100 scale, 0 = no effect, 100 = complete control
[17] = Postemergence, 125 g ai/ha, 0 to 100 scale where 0 is no effect and 100 is complete control
[18] = Postemergence, 500 g ai/ha, 0 to 100 scale, 0 = no effect, 100 = complete control, approx. ten days
[19] = Preemergence, 125 g ai/ha, 0 to 100 scale, 0 = no effect, 100 = complete control
[20] = Preemergence, 500 g ai/ha, visual injury, 0 to 100 scale (0 no effect, 100 complete control), approx. ten days

## O=C(C1=C(O)C2CCC(C2)C1=O)c1cnc(-c2ccccc2)n(C2CCCCCC2)c1=O (stereo not drawn) [Compound 253]
[1]
  Plant response rating, Flood, Sedge, Umbrella: 85
  Sedge, Umbrella plant response rating: 60
[1]; [11]
  Plant response rating, Sedge, Umbrella: 65
[1]; [12]
  Plant response rating, Sedge, Umbrella: 75
[2]
  Plant response rating, Flood, Barnyardgrass: 20
  Barnyardgrass plant response rating: 0
[2]; [11]
  Plant response rating, Barnyardgrass: 0
[2]; [12]
  Plant response rating, Barnyardgrass: 0
Rice (Oryza sativa)
  Plant response rating, Flood, Rice: 20
  Rice plant response rating: 0
Rice (Oryza sativa); [11]
  Plant response rating, Rice: 0
Rice (Oryza sativa); [12]
  Plant response rating, Rice: 0
[3]
  Plant response rating, Flood, Ducksalad: 90
  Ducksalad plant response rating: 60
[3]; [11]
  Plant response rating, Ducksalad: 75
[3]; [12]
  Plant response rating, Ducksalad: 85
[4]; [13]
  Plant response rating, Pigweed: 90
[4]; [14]
  Pigweed plant response rating: 100
[4]; [15]
  Plant response rating, Pigweed: 20
[4]; [16]
  Plant response rating, Pigweed: 80
[5]; [17]
  Plant response rating, Barnyardgrass: 100
[5]; [14]
  Barnyardgrass plant response rating: 100
[5]; [15]
  Plant response rating, Barnyardgrass: 10
[5]; [16]
  Plant response rating, Barnyardgrass: 20
[6]; [13]
  Plant response rating, Foxtail, Giant: 60
[6]; [14]
  Foxtail, Giant plant response rating: 100
[6]; [15]
  Plant response rating, Foxtail, Giant: 20
[6]; [16]
  Plant response rating, Foxtail, Giant: 70
[7]; [17]
  Plant response rating, Crabgrass, Large: 80
[7]; [14]
  Crabgrass, Large plant response rating: 100
[7]; [15]
  Plant response rating, Crabgrass, Large: 30
[7]; [16]
  Plant response rating, Crabgrass, Large: 80
[8]; [13]
  Plant response rating, Morningglory: 100
[8]; [14]
  Morningglory plant response rating: 100
[8]; [15]
  Plant response rating, Morningglory: 40
[8]; [16]
  Plant response rating, Morningglory: 70
[9]; [13]
  Plant response rating, Wheat: 0
[9]; [14]
  Wheat plant response rating: 20
[9]; [15]
  Plant response rating, Wheat: 0
[9]; [16]
  Plant response rating, Wheat: 20
Corn (Zea mays); [17]
  Plant response rating, Corn: 10
Corn (Zea mays); [14]
  Corn plant response rating: 40
Corn (Zea mays); [15]
  Plant response rating, Corn: 0
[10]; [13]
  Plant response rating, Velvetleaf: 100
[10]; [14]
  Velvetleaf plant response rating: 100
[10]; [15]
  Plant response rating, Velvetleaf: 50
[10]; [16]
  Plant response rating, Velvetleaf: 90

## CCn1c(-c2cccc(Cl)c2)ncc(C(=O)C2=C(O)CCCC2=O)c1=O [Compound 145]
[1]
  Plant response rating, Flood, Sedge, Umbrella: 80
  Sedge, Umbrella plant response rating: 0
[1]; [11]
  Plant response rating, Sedge, Umbrella: 0
[1]; [12]
  Plant response rating, Sedge, Umbrella: 60
[2]
  Plant response rating, Flood, Barnyardgrass: 25
  Barnyardgrass plant response rating: 0
[2]; [11]
  Plant response rating, Barnyardgrass: 0
[2]; [12]
  Plant response rating, Barnyardgrass: 0
Rice (Oryza sativa)
  Plant response rating, Flood, Rice: 0
  Rice plant response rating: 0
Rice (Oryza sativa); [11]
  Plant response rating, Rice: 0
Rice (Oryza sativa); [12]
  Plant response rating, Rice: 0
[3]
  Plant response rating, Flood, Ducksalad: 80
  Ducksalad plant response rating: 80
[3]; [11]
  Plant response rating, Ducksalad: 80
[3]; [12]
  Plant response rating, Ducksalad: 80
[4]; [17]
  Plant response rating, Pigweed: 100
[4]; [18]
  Plant response rating, Pigweed: 100
[4]; [19]
  Plant response rating, Pigweed: 70
[4]; [20]
  Plant response rating, Pigweed: 100
[5]; [17]
  Plant response rating, Barnyardgrass: 70
[5]; [18]
  Plant response rating, Barnyardgrass: 100
[5]; [19]
  Plant response rating, Barnyardgrass: 20
[5]; [20]
  Plant response rating, Barnyardgrass: 90
[6]; [17]
  Plant response rating, Foxtail, Giant: 60
[6]; [18]
  Plant response rating, Foxtail, Giant: 80
[6]; [19]
  Plant response rating, Foxtail, Giant: 30
[6]; [20]
  Plant response rating, Foxtail, Giant: 70
[7]; [17]
  Plant response rating, Crabgrass, Large: 70
[7]; [18]
  Plant response rating, Crabgrass, Large: 90
[7]; [19]
  Plant response rating, Crabgrass, Large: 50
[7]; [20]
  Plant response rating, Crabgrass, Large: 100
[8]; [17]
  Plant response rating, Morningglory: 90
[8]; [18]
  Plant response rating, Morningglory: 90
[8]; [19]
  Plant response rating, Morningglory: 0
[8]; [20]
  Plant response rating, Morningglory: 80
[9]; [17]
  Plant response rating, Wheat: 0
[9]; [18]
  Plant response rating, Wheat: 0
[9]; [19]
  Plant response rating, Wheat: 0
[9]; [16]
  Plant response rating, Wheat: 20
Corn (Zea mays); [17]
  Plant response rating, Corn: 30
Corn (Zea mays); [18]
  Plant response rating, Corn: 40
Corn (Zea mays); [19]
  Plant response rating, Corn: 0
Corn (Zea mays); [20]
  Plant response rating, Corn: 20
[10]; [17]
  Plant response rating, Velvetleaf: 100
[10]; [18]
  Plant response rating, Velvetleaf: 100
[10]; [19]
  Plant response rating, Velvetleaf: 90
[10]; [16]
  Plant response rating, Velvetleaf: 100

## C=CCCn1c(-c2ccccc2)ncc(C(=O)C2=C(O)CCCC2=O)c1=O [Compound 214]
[1]
  Plant response rating, Flood, Sedge, Umbrella: 85
[1]; [11]
  Plant response rating, Sedge, Umbrella: 0
[2]
  Plant response rating, Flood, Barnyardgrass: 20
[2]; [11]
  Plant response rating, Barnyardgrass: 0
Rice (Oryza sativa)
  Plant response rating, Flood, Rice: 15
Rice (Oryza sativa); [11]
  Plant response rating, Rice: 0
[3]
  Plant response rating, Flood, Ducksalad: 95
[3]; [11]
  Plant response rating, Ducksalad: 0
[4]; [17]
  Plant response rating, Pigweed: 90
[4]; [14]
  Pigweed plant response rating: 100
[4]; [19]
  Plant response rating, Pigweed: 70
[4]; [16]
  Plant response rating, Pigweed: 90
[5]; [17]
  Plant response rating, Barnyardgrass: 80
[5]; [14]
  Barnyardgrass plant response rating: 90
[5]; [19]
  Plant response rating, Barnyardgrass: 10
[5]; [16]
  Plant response rating, Barnyardgrass: 60
[6]; [17]
  Plant response rating, Foxtail, Giant: 50
[6]; [14]
  Foxtail, Giant plant response rating: 90
[6]; [19]
  Plant response rating, Foxtail, Giant: 30
[6]; [16]
  Plant response rating, Foxtail, Giant: 70
[7]; [17]
  Plant response rating, Crabgrass, Large: 80
[7]; [14]
  Crabgrass, Large plant response rating: 90
[7]; [19]
  Plant response rating, Crabgrass, Large: 30
[7]; [16]
  Plant response rating, Crabgrass, Large: 90
[8]; [17]
  Plant response rating, Morningglory: 80
[8]; [14]
  Morningglory plant response rating: 100
[8]; [19]
  Plant response rating, Morningglory: 0
[8]; [16]
  Plant response rating, Morningglory: 80
[9]; [17]
  Plant response rating, Wheat: 0
[9]; [14]
  Wheat plant response rating: 20
[9]; [19]
  Plant response rating, Wheat: 0
[9]; [16]
  Plant response rating, Wheat: 30
Corn (Zea mays); [17]
  Plant response rating, Corn: 0
Corn (Zea mays); [14]
  Corn plant response rating: 30
Corn (Zea mays); [19]
  Plant response rating, Corn: 0
Corn (Zea mays); [16]
  Plant response rating, Corn: 0
[10]; [17]
  Plant response rating, Velvetleaf: 100
[10]; [14]
  Velvetleaf plant response rating: 100
[10]; [19]
  Plant response rating, Velvetleaf: 90
[10]; [16]
  Plant response rating, Velvetleaf: 100
